Molecular target: T1, Melatonin receptor (Oryctolagus cuniculus, UniProt Q9BE38)
T1 sequence (Q9BE38 whole entry): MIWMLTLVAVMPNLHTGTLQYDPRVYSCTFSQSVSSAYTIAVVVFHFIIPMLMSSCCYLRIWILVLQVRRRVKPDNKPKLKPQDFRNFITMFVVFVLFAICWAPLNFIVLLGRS

Row | Ki | SMILES
1 | > 10 µM | COc1ccc2[nH]cc(CCO)c2c1
2 | 3 µM | CC(=O)NCCc1c[nH]c2ccc(O)cc12 [N-Acetyltryptamine,5-Hydroxy]
3 | 0.074 µM | COc1cc2c(CCNC(C)=O)c[nH]c2cc1O [melatonin, 6-Hydroxy]
4 | 0.46 µM | COc1cc2[nH]cc(CCNC(C)=O)c2cc1OC [melatonin, 6-Methoxy]

Row | SMILES | Ki
5 | CC(=O)NCCc1c[nH]c2ccccc12 [N-Acetyltryptamine] | 1.6 µM

Reference: BindingDB's records for doi:10.1016/0197-0186(94)90100-7 (Rowett Research Institute, 1994)
